According to patent US12370235B2, “Synthetic, non-natural antimicrobial peptides inspired by Staphylococcus auricularis delta toxin” (University of Saskatchewan, priority 2021, dated 2025):
Ends that are not written are not given here.

Assays:
3D EpiDerm skin tissues = assay: Peptide cytotoxicity, 3D EpiDerm skin tissues, alamarBlue; assay type: cell-based, human; conditions: 250 μg/mL, 24 h
Procedure: Peptide cytotoxicity. In vitro cytotoxicity was measured using the 3D EpiDerm skin tissues and HeLa Cells using a fluorescent reporter of cell viability, alamarBlue (ThermoFisher Scientific). 3D EpiDerm skin tissues (MatTek EPI-200-AFAB) were transferred to a 12 well plate containing 600 μL of AFAB-assay medium supplemented with 10% v/v alamarBlue. […] HeLa cells were seeded in a 96-well plate (2×10^4 cells/per well) and incubated overnight at 37° C. and 5% CO2 in a humidified incubator to prepare wells at ˜50% confluency of adherent cells. After the incubation, spent DMEM was removed and cells were washed with PBS. alamarBlue-containing medium was prepared by mixing Phenol Red-free DMEM with alamarBlue solution at a 9:1 ratio and a 180 μl volume was added to each well. Cells were treated with peptides varying from 3.25 to 200 μg/mL and then incubated for 24 h. The fluorescence intensities of treated cultures were normalized to values measured for an untreated control group. After the 24 h incubation period, alamarBlue fluorescence was measured at 590 nm upon excitation at 560 nm using Varioskan Lux plate reader (Thermo Scientific) plate reader.

Candida krusei AR 397 = assay: MIC, YPD broth, CDC and FDA AR Candida isolate panel; assay type: cell-based; conditions: Table 9 top part: titrations from 1.56 to 100 μg/mL
In short: (§1)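 Static overnight growth at 37° C of yeast (optical density […]) challenged with doubling peptide dilutions; sterile water served as the no-peptide control.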

[1] = system: Candida duobushaemulonii AR 394; assay: as above; assay type: cell-based; conditions: Table 9 top part: titrations from 1.56 to 100 μg/mL
In short: as §1

Kodamae ohmeri AR 396 = assay: as above; assay type: cell-based; conditions: Table 9 top part: titrations from 1.56 to 100 μg/mL
In short: as §1

[2] = system: Candida duobushaemulonii AR 391; assay: as above; assay type: cell-based; conditions: Table 9 top part: titrations from 1.56 to 100 μg/mL
In short: as §1

[3] = system: Candida duobushaemulonii AR 392; assay: as above; assay type: cell-based; conditions: Table 9 top part: titrations from 1.56 to 100 μg/mL
In short: as §1

[4] = system: Saccharomyces cerevisiae AR 399; assay: as above; assay type: cell-based; conditions: Table 9 top part: titrations from 1.56 to 100 μg/mL
In short: as §1

[5] = system: Saccharomyces cerevisiae AR 400; assay: as above; assay type: cell-based; conditions: Table 9 top part: titrations from 1.56 to 100 μg/mL
In short: as §1

[6] = system: Candida haemulonii AR 393; assay: as above; assay type: cell-based; conditions: Table 9 top part: titrations from 1.56 to 100 μg/mL
In short: as §1

[7] = system: Candida lusitaniae AR 398; assay: as above; assay type: cell-based; conditions: Table 9 top part: titrations from 1.56 to 100 μg/mL
In short: as §1

MRSA ATCC 33592 = assay: SYTOX Green membrane integrity assay; assay type: cell-based, Staphylococcus aureus; conditions: one fourth to four-fold the MIC
Procedure: Membrane disruption and depolarization are commonly reported mechanisms of AMP action. Two indirect assays that rely on fluorescent dyes were employed to assess the interaction of STIP3-29 and D-STIP3-29 with bacterial membranes. First, changes to SYTOX fluorescence was measured when MRSA ATCC 33592 was treated with increasing peptide concentrations ranging from one fourth to four-fold the MIC. […] Next, DiSC3(5), a cationic dye that binds to polarized membranes was used to report on possible depolarization related to AMP treatment. […] Thus, without wishing to be bound by theory, a more conservative explanation of the results is that the cationic peptides increase membrane permeability to SYTOX and that the like-charge of the AMPs to the reporter of polarization may confound the interpretation of the indirect assay. For example, the AMPs may simply displace the self-quenching DiSC3(5) molecules from the membrane surface without causing depolarization.

[8] = system: S. aureus ATCC 33592 (MRSA SCCmec type III); assay: MIC, broth dilution; assay type: cell-based, Staphylococcus aureus; conditions: Table 5; STIP3 variants, highest concentration 100 μg/mL
In short: (§2)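 MIC defined as the lowest peptide level giving no growth after overnight standing incubation at 37° C. Bacteria at OD 6×10^−4 in cation-adjusted MH broth met 2-fold serial peptide dilutions; peptide purity 95%.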

[9] = system: S. aureus ATCC BAA-41 (MRSA SCCmec type II); assay: MIC, broth dilution; assay type: cell-based, Staphylococcus aureus; conditions: Table 5; STIP3 variants, highest concentration 100 μg/mL
In short: as §2

[10] = system: S. pseudintermedius canine isolate MSSP42; assay: MIC, broth dilution; assay type: cell-based, Staphylococcus pseudintermedius
Procedure: (§3) MIC determination. MICs were measured using peptides with 95% purity. For bacterial studies, cation-adjusted Mueller Hinton (MH) broth was used as the growth medium whereas Yeast Peptone Dextrose (YPD; 10 g/L yeast extract, 20 g/L peptone, 20 g/L dextrose) was used for Candida spp. and other yeast. Microorganisms were diluted to an optical density of […] in MH or YPD broth and a 180 μl volume was mixed with 20 μl of peptide arrayed as a 2-fold dilution series in a flat-bottom 96-well microtitre plate. A control was performed using 20 μl of sterile water. Plates were incubated as standing cultures overnight at 37° C.
(§4) Determination of minimum inhibitory concentrations. The MICs were measured for bioactive peptides identified from the initial screen. For bacterial studies, cation-adjusted Mueller Hinton (MH) broth was used as the growth medium whereas YPD was used for C. albicans. Bacterial cultures were diluted to a OD value of 6×10^−4 in MH broth and a 180 μl volume was mixed with 20 μl of peptide arrayed as 2-fold dilution series in a 96-well plate. For the positive control, 20 μl of sterile water was used. Plates were incubated as standing cultures overnight at 37° C. The lowest peptide concentration that resulted no observed microbial growth after an overnight treatment was defined as the MIC.

[11] = system: S. pseudintermedius human isolate SPC001 (MSSP); assay: MIC, broth dilution; assay type: cell-based, Staphylococcus pseudintermedius
Procedure: as §3, §4

[12] = system: S. pseudintermedius canine isolate MRSP24; assay: MIC, broth dilution; assay type: cell-based, Staphylococcus pseudintermedius
Procedure: as §3, §4

[13] = system: S. pseudintermedius human isolate SPC020 (MSSR); assay: MIC, broth dilution; assay type: cell-based, Staphylococcus pseudintermedius
Procedure: as §3, §4

[14] = system: S. pseudintermedius human isolate SPC002 (MSSP); assay: MIC, broth dilution; assay type: cell-based, Staphylococcus pseudintermedius
Procedure: as §3, §4

[15] = system: S. pseudintermedius canine isolate MRSP16; assay: MIC, broth dilution; assay type: cell-based, Staphylococcus pseudintermedius
Procedure: as §3, §4

TVGGLVKWILKTVKKFA-NH2 [STIP3-29, TVGGLVKWILKTVKKFA-NH2]
indirect measure of tissue health (alamarBlue) (3D EpiDerm skin tissues): appeared to be unaffected | MIC (μg/mL) Candida krusei AR 397 (Candida krusei AR 397): 50 µg/mL | MIC (μg/mL) Candida duobushaemulonii AR 394 [1]: 100 µg/mL | MIC (μg/mL) Kodamae ohmeri AR 396 (Kodamae ohmeri AR 396): 50 µg/mL | MIC (μg/mL) Candida duobushaemulonii AR 391 [2]: 25 µg/mL | MIC (μg/mL) Candida duobushaemulonii AR 392 [3]: 50 µg/mL | MIC (μg/mL) Saccharomyces cerevisiae AR 399 [4]: 50 µg/mL | MIC (μg/mL) Saccharomyces cerevisiae AR 400 [5]: 25 µg/mL | MIC (μg/mL) Candida haemulonii AR 393 [6]: 200 µg/mL | MIC (μg/mL) Candida lusitaniae AR 398 [7]: 25 µg/mL | SYTOX fluorescence change (MRSA ATCC 33592): rapid and concentration dependent increase in SYTOX fluorescence | MIC S. aureus ATCC 33592 (III) [8]: 6.25 µg/mL | MIC S. aureus ATCC BAA 41 (II) [9]: 6.25 µg/mL | MIC [10]: 3.13 µg/mL | MIC [11]: 3.13 µg/mL | MIC [12]: 3.13 µg/mL | MIC [13]: 3.13 µg/mL | MIC [14]: 3.13 µg/mL | MIC [15]: 3.13 µg/mL
